Data on four molecules can be found in patent US7199129B2, “Derivatives of morphine-like opioid compounds” (Monash University, priority 2001, dated 2007).

Series [1] has as its system ICR mice. Description: Phenylquinone-induced writhing assay in mice (Example 18). In kind it is in vivo. The following applies: IP; for Number of Writhings Individual: individual mice. On the procedure: Testing on compounds KRS-6-26 and JFY-058 was also carried out under contract by MDS Services—Taiwan Ltd. The study was designed to evaluate the effects of the compounds as analgesics in the phenylquinone-induced writhing assay described in detail in Example 13(Siegmund et al, 1957).
(§1) In each case, a serial 2-fold dosage variance was used in the test, from 128 mg/kg to 1 mg/kg (8 doses in total). Groups of 3 male or female ICR mice weighing 22±2 g were employed. A serial 2-fold dosage variance was used in the test (8 doses in total). Variant doses (1, 2, 4, 8, 16, 32, 64 and 128 mg/kg) of test substances were administered intraperitoneally (IP). A vehicle of 2% Tween 80 in 0.9% NaCl was used for the intraperitoneal injection. The control group received vehicle alone. […] A reduction in the number of writhes by 50 percent or more (≧50%) relative to the vehicle-treated group indicated possible analgesic activity.

The target in series [2] is T1, human δ-opiate receptor (Homo sapiens, UniProt P41143).
T1 construct: purchased MDS Pharma Services 260110
Nature of the series: In vitro opiate receptor radioligand binding assay, δ. The following applies: test compound 10 μM; read-out: Percentage inhibition of radioligand binding, δ-opiate receptor. The protocol: (§2) To characterise the target specificity of the compounds, KRS-5-150 and KRS-6-26 were tested at a concentration of 10 μM for their ability to inhibit the binding of a radioligand to human δ-, κ-, or μ-opiate receptors in vitro using commercially available assays (MDS Pharma Services; assay catalogue numbers 260110, 260210 and 260410 respectively).
(§3) Percentage inhibition of radioligand binding to human opioid receptors in vitro by test compounds (10 μM)

Series [3] deals with T2, human μ-opiate receptor (Homo sapiens, UniProt P35372).
T2 construct: purchased MDS Pharma Services 260410
Description: In vitro opiate receptor radioligand binding assay, μ. The following applies: test compound 10 μM; read-out: Percentage inhibition of radioligand binding, μ-opiate receptor. On the procedure:
as §2, §3

Series [4] concerns the target T3, human κ-opiate receptor (Homo sapiens, UniProt P41145).
T3 construct: purchased MDS Pharma Services 260210
Nature of the series: In vitro opiate receptor radioligand binding assay, κ. Conditions: test compound 10 μM; read-out: Percentage inhibition of radioligand binding, κ-opiate receptor. The protocol:
as §2, §3

The subject of series [5] is ICR mice. Nature of the series: Straub tail behaviour (indicator of CNS activity) and observed signs in test animals. The source says:
The Straub test is an indicator of CNS activity.
The tail-flick test is thought to involve central nervous system activity, and therefore provides further confirmation of the Straub tail test.

Series [6] deals with ICR mice. Description: Radiant heat-induced tail-flick response assay in mice. In kind it is in vivo. Conditions: IP, 10 mg/kg. The protocol:
For the tail-flick assay, groups of four male or female ICR mice weighing 22±2 g were used, and the test compound dissolved in 2% Tween 80/0.9% NaCl was administered intraperitoneally. The compound was administered intraperitoneally at 4, 8, 16 or 32 mg/kg, using 2% Tween 80—0.9% NaCl as the vehicle. Controls received vehicle alone. Morphine-HCl at a dose of 10 mg/kg was used as a positive control. At the pre-treatment point (0 minutes) a focused beam of radiant heat was applied to the middle dorsal surface of the tail to elicit a tail-flick response. […] The time required to elicit a pain response was recorded for each animal at 30 minutes following administration of the test compound. A prolongation of 50% or more ≧50% of the time required to elicit tail-flick response indicated possible analgesic activity.

Series [7] relates to ICR mice. Description: Phenylquinone-induced writhing model in mice (Example 16). Type of series: in vivo. The following applies: IP, 3 mg/kg, Table 1. The protocol:
as §1, with “KRS-5-150 was evaluated for possible analgesic activity in the phenylquinone-induced writhing model in mice (Siegmund et al, 1957). A” for “In each case, a”

Where “and” joins values, the source holds several entries; their conditions need not be identical. Equal values may be shown once. Where a name gives a salt, the structure may show the parent alone. Where only a bound is given, the exact number is not on record here.

T3 sequence (P41145 whole entry): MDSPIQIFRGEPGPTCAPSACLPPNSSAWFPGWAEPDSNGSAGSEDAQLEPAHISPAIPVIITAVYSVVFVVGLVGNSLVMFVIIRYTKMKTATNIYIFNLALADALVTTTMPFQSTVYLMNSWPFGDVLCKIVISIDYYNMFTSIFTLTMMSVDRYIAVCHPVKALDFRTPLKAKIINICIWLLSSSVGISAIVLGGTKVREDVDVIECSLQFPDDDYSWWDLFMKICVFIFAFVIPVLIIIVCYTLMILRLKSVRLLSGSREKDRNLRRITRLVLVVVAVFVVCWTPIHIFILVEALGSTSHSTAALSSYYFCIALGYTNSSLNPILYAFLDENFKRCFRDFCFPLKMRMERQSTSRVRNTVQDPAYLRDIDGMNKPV
T1 sequence (P41143 whole entry): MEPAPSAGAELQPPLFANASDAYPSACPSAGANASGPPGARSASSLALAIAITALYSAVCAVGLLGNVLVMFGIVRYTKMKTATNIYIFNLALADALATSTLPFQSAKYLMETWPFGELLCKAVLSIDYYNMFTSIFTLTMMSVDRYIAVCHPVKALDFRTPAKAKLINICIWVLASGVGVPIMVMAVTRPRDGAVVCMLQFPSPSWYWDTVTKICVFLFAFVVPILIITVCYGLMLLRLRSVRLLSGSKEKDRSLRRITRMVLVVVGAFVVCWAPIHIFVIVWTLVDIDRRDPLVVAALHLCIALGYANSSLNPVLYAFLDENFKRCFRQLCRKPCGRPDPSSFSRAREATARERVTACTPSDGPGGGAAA
T2 sequence (P35372 whole entry): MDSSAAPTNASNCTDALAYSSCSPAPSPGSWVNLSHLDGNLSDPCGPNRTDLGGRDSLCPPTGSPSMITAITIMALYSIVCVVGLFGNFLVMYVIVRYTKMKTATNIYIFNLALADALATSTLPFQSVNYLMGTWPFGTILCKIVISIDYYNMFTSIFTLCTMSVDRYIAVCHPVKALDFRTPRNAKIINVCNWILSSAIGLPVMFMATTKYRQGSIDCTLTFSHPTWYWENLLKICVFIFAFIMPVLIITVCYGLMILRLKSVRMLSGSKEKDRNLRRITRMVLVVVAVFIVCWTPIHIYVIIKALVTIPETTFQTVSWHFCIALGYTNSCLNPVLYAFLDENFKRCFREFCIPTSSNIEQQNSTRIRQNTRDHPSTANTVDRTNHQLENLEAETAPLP

As for `Cc1ccc(N=C(NCCCN2CC[C@]34c5c6ccc(O)c5O[C@H]3[C@@H](O)C=CC4[C@H]2C6)Nc2ccc(C)cc2)cc1` (stereo partly drawn) [KRS-6-26, (5α,6α)-7,8-didehydro-4,5-epoxy-17-(N,N′-bis-p-tolylcarboxamidino-3-aminopropyl)morphinan-3,6-diol], the “% Inhibition” value was found to be 50% in series [1] (1 mg/kg, Table 4); 50% in series [1] (2 mg/kg, Table 4); 75% in series [1] (4 mg/kg, Table 4); 92% in series [1] (8 mg/kg, Table 4); 100% in series [1] (16 mg/kg, Table 4); 100% in series [1] (32 mg/kg, Table 4). Moreover, the “% Inhibition” value in series [1] (64 mg/kg, Table 4) was found to be 100%; in series [1] (128 mg/kg, Table 4) it was 100%. The “Number of Writhings Average” value in series [1] (1 mg/kg, Table 4) came to 6; in series [1] (2 mg/kg, Table 4) it was 6; in series [1] (4 mg/kg, Table 4), 3; in series [1] (8 mg/kg, Table 4), 1; in series [1] (16 mg/kg, Table 4), 0; in series [1] (32 mg/kg, Table 4), 0. Moreover, the “Number of Writhings Average” value is reported as 0 in series [1] (64 mg/kg, Table 4) and 0 in series [1] (128 mg/kg, Table 4). Further, the “Number of Writhings Individual” value is 0 and 13 and 4 in series [1] (1 mg/kg, Table 4); 13 and 2 and 4 in series [1] (2 mg/kg, Table 4); 0 and 7 and 2 in series [1] (4 mg/kg, Table 4); 1 and 0 and 2 in series [1] (8 mg/kg, Table 4); 0 in series [1] (16 mg/kg, Table 4); 0 (2×) and 1 in series [1] (32 mg/kg, Table 4). Further, the “Number of Writhings Individual” value in series [1] (64 mg/kg, Table 4) was found to be 0; in series [1] (128 mg/kg, Table 4), 0. In addition, the inhibition in writhing in series [1] (doses higher than 8 mg/kg) is 100%. Besides, the deaths result in series [1] (up to 128 mg/kg) is listed as “no deaths”. Also, the inhibition at 10 µM in series [2] is 95%; in series [3], 99%; in series [4] it was 94%. For the same molecule, the “test animals exhibiting slight Straub tail behaviour” value in series [5] (IP, 16 mg/kg, Example 18) is reported as “one”. In addition, the “test animals exhibiting slight Straub tail behaviour and piloerection” value in series [5] (IP, 128, 64 and 32 mg/kg, Example 18) was 2 of 3.
As for “(5α,6α)-7,8-didehydro-4,5-epoxy-17-(N,N′-bis-p-tolylcarboxamidino-3-aminopropyl)morphinan-3,6-diol [KRS-6-26]”, in series [1] (doses of 128, 64, 32, 16, 8, 4, 2 and 1 mg/kg), the “analgesic activity (≧50% reduction in writhes)” value is recorded as “significant activity”.
Regarding `Oc1ccc2c3c1OC1C(O)C=CC4C(C2)N(/C(=N/c2ccccc2)Nc2ccccc2)CCC341` (stereo not drawn) [JFY-058, (5α,6α)-7,8-didehydro-4,5-epoxy-17-(N,N′-bisphenylcarboxamidino)morphinan, 3,6-diol], the “% Inhibition” value in series [1] (1 mg/kg, Table 5) is 17%; in series [1] (2 mg/kg, Table 5) it was 33%; in series [1] (4 mg/kg, Table 5) it was 39%; in series [1] (8 mg/kg, Table 5) it was 39%; in series [1] (16 mg/kg, Table 5), 78%; in series [1] (32 mg/kg, Table 5), 100%. The “% Inhibition” value was found to be 100% in series [1] (64 mg/kg, Table 5) and 100% in series [1] (128 mg/kg, Table 5). Further, the “Number of Writhings Average” value in series [1] (1 mg/kg, Table 5) was 15; in series [1] (2 mg/kg, Table 5), 12; in series [1] (4 mg/kg, Table 5), 11; in series [1] (8 mg/kg, Table 5), 11; in series [1] (16 mg/kg, Table 5), 4; in series [1] (32 mg/kg, Table 5), 0. The “Number of Writhings Average” value is listed as 0 in series [1] (64 mg/kg, Table 5) and 0 in series [1] (128 mg/kg, Table 5). Further, the “Number of Writhings Individual” value was 17 and 19 and 10 in series [1] (1 mg/kg, Table 5); 15 and 13 and 8 in series [1] (2 mg/kg, Table 5); 15 and 6 and 11 in series [1] (4 mg/kg, Table 5); 3 and 15 and 14 in series [1] (8 mg/kg, Table 5); 2 and 1 and 8 in series [1] (16 mg/kg, Table 5); 0 (2×) and 1 in series [1] (32 mg/kg, Table 5). The “Number of Writhings Individual” value came to 0 in series [1] (64 mg/kg, Table 5) and 0 in series [1] (128 mg/kg, Table 5). In addition, in series [1] (doses of 128, 64, 32 and 16 mg/kg), the “analgesic activity (≧50% reduction in writhes)” value is “significant activity”. In series [5] (IP, 40 minute observation period after administration, Example 18), the Straub tail behaviour entry is “None of the test animals exhibited Straub tail behaviour”.
Take `CN1CC[C@]23c4c5ccc(O)c4O[C@H]2[C@@H](O)C=C[C@H]3[C@H]1C5` [Morphine.HCl, reference compound]: in series [1] (3 mg/kg, Table 4), the “% Inhibition” value worked out at 100%; the “Number of Writhings Average” value stood at 0; the “Number of Writhings Individual” value was 1 and 0 (2×). Moreover, in series [1] (3 mg/kg, Table 5), the “% Inhibition” value is 100%, the “Number of Writhings Average” value was found to be 0 and the “Number of Writhings Individual” value was 0. Moreover, in series [6] (30 minutes), the “% Inhibition (prolongation of tail-flick response time)” value is on record as “(100) %”. For the same molecule, the “Response Time (Seconds) 30 Mins., Average” value in series [6] (30 minutes after administration) was 13.6 s. Moreover, in series [6] (individual mice, 30 minutes after administration, cut-off 15 seconds), the “Response Time (Seconds) 30 Mins.” value was >15.0 Seconds (3×) and 9.4 Seconds. For the same molecule, in series [6] (individual mice, pre-treatment (0 minutes)), the “Response Time (Seconds) 0 Time” value is 6.3 Seconds (2×) and 6.2 Seconds and 6.5 Seconds. The “Response Time (Seconds) 0 Time, Average” value in series [6] (pre-treatment (0 minutes)) was 6.3 s. Moreover, the “test animals exhibiting the Straub tail phenomenon” value in series [5] (3 mg/kg, Example 16) is 1 of 3. Further, the “test animals with slight Straub tail phenomenon” value in series [5] (3 mg/kg, Example 18) was 2 of 3. For the same molecule, in series [7], the “% Inhibition” value amounted to 100%. Further, the “No. of Writhings Individual” value in series [7] (individual mice) is 0.
